Test results from patent publication US8906944B2, “Compounds as tyrosine kinase modulators” (Allergan, Inc., priority 2009, dated 2014).

What was measured:
Format in all cases: biochemical
[1] = molecular target: T1, human VEGF receptor (VEGFR-2) (Homo sapiens, UniProt P35968); test: VEGFR2 kinase assay; details: His-VEGFR-2 cytoplasmic domain, 3.6 μM ATP; Table IV, amide or urea linker; read-out: VEGFR2 Enzyme IC50
T1 construct: The cytoplasmic domain of the human VEGF receptor (VEGFR-2) was expressed; His; made in house; host or cells: insect cells (baculovirus)
T1 sequence (P35968 786-1356 limits assumed): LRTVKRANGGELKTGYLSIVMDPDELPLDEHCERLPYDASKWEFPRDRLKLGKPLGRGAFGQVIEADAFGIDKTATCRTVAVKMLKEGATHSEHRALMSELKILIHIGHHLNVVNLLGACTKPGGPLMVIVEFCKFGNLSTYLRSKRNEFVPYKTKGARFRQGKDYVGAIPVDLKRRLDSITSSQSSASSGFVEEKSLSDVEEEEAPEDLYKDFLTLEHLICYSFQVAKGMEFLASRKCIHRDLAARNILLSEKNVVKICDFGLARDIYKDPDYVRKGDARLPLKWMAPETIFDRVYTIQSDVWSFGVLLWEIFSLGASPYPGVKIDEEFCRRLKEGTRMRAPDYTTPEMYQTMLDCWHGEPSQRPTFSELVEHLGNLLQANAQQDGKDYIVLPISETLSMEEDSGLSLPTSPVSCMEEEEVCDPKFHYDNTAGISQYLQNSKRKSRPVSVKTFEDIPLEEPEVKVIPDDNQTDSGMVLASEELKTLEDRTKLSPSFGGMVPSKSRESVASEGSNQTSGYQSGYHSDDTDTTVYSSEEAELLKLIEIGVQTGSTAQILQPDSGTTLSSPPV
Protocol: The cytoplasmic domain of the human VEGF receptor (VEGFR-2) was expressed as a Histidine-tagged fusion protein following infection of insect cells using an H is engineered baculovirus. […] Kinase assays were performed in 96 well microtiter plates that were coated overnight with 30 µg of poly-Glu-Tyr (4:1) in 10 mM Phosphate Buffered Saline (PBS), pH 7.2-7.4. The plates were incubated with 1% BSA and then washed four times with PBS prior to starting the reaction. Reactions were carried out in 120 µL reaction volumes containing 3.6 µM ATP in kinase buffer (50 mM Hepes buffer pH 7.4, 20 mM MgCl2, 0.1 mM MnCl2 and 0.2 mM Na3 VO4). […] Reactions were initiated by the addition 0.5 ng of purified protein. Following a ten minute incubation at 25 degree. […] IC50 values for compound inhibition were calculated directly from graphs of optical density (arbitrary units) versus compound concentration following subtraction of blank values.

[2] = molecular target: VEGFR1 (Homo sapiens, UniProt P17948); test: VEGFR1 enzyme assay; details: Table IV, amide or urea linker
Chain of VEGFR1 (P17948 27-1338, species assumed): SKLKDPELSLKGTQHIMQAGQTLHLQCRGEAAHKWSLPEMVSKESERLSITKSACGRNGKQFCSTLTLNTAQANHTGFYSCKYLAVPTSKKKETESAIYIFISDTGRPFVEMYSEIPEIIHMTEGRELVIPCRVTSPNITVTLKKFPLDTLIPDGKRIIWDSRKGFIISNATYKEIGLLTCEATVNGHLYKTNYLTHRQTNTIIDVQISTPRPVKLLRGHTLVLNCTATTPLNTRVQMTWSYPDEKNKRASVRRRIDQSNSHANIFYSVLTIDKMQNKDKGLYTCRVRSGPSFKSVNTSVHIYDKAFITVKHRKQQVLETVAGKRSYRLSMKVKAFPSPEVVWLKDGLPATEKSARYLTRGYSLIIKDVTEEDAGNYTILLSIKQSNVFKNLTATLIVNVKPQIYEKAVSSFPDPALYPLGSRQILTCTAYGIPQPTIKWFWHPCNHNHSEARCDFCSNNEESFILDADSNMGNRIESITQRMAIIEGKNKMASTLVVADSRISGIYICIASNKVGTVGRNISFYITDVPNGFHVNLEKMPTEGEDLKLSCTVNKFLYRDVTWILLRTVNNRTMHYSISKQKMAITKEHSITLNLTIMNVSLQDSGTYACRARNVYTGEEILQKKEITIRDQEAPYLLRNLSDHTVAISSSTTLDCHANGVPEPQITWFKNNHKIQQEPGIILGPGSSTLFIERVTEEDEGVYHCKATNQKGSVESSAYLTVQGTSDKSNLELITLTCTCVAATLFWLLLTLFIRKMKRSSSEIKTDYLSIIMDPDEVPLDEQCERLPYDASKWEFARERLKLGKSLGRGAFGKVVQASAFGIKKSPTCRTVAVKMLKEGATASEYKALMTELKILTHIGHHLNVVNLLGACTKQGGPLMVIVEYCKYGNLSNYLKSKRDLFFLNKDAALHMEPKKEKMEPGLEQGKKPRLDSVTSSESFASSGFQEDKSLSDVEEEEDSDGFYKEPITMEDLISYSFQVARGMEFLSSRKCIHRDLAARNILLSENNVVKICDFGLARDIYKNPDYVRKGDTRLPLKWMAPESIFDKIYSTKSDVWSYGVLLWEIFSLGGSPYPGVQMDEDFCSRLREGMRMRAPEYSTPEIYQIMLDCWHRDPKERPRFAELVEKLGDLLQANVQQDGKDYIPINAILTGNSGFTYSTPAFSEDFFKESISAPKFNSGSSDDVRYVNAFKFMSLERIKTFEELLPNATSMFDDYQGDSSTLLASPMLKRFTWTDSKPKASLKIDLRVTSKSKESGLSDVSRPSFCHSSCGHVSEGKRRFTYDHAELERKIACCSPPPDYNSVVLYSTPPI

[3] = molecular target: PDGFβ (Homo sapiens, UniProt P09619); test: PDGFβ enzyme assay; details: Table IV, amide or urea linker
Chain of PDGFβ (P09619 33-1106): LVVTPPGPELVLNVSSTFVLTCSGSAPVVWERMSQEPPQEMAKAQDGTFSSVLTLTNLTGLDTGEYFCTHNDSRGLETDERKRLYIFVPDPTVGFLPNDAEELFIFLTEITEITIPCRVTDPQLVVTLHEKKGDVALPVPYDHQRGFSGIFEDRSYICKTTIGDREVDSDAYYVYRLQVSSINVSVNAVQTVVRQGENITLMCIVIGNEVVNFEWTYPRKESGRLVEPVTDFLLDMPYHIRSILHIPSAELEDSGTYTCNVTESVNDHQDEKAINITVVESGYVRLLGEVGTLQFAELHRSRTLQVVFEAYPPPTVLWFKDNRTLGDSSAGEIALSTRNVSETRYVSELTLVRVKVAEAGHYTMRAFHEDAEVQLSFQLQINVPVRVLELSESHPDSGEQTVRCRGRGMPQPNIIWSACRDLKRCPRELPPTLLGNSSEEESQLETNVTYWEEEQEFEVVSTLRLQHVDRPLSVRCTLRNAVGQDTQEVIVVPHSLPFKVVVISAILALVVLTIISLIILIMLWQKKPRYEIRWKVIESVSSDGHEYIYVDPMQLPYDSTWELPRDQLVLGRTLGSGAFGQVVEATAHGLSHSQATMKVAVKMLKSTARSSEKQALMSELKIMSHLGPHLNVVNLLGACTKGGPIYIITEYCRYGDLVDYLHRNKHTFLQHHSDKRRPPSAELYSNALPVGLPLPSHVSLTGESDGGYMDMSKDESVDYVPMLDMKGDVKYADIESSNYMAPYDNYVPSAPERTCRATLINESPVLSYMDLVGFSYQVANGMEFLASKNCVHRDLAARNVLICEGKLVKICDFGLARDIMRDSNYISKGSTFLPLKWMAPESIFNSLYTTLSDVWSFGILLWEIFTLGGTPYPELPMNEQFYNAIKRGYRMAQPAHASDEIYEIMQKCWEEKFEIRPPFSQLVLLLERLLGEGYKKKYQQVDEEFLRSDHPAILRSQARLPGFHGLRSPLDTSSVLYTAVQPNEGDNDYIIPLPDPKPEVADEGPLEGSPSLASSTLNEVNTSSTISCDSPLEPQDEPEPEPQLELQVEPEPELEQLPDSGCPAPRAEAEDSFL

Cc1ccc(F)c(NC(=O)c2ccc(F)c(Oc3ccnc(-c4cc(C(=O)N[C@@H](CCC(=O)O)C(=O)O)c[nH]4)c3)c2)c1 (stereo in doubt) [Example 248, 2-[({5-[4-(2-fluoro-5-{[(2-fluoro-5-methylphenyl)amino]carbonyl}phenoxy)pyridin-2-yl]-1H-pyrrol-3-yl}carbonyl)amino]pentanedioic acid]
IC50 [1]: 56 nM
IC50 [2]: 28 nM
IC50 [3]: 157 nM

Cc1ccc(F)c(NC(=O)Nc2ccc(Oc3ccnc(-c4cc(C(=O)NCCCc5nn[nH]n5)c[nH]4)c3)cc2)c1 [Example 149, 5-{4-[4-({[(2-fluoro-5-methylphenyl)amino]carbonyl}amino)phenoxy]pyridin-2-yl}-N-[3-(2H-tetrazol-5-yl)propyl]-1H-pyrrole-3-carboxamide]
IC50 [1]: 4 nM
IC50 [2]: 6 nM
IC50 [3]: 13 nM

Cc1ccc(F)c(NC(=O)Nc2ccc(Oc3ccnc(-c4cc(C(=O)NCCc5nn[nH]n5)c[nH]4)c3)cc2)c1 [Example 150, 5-{4-[4-({[(2-fluoro-5-methylphenyl)amino]carbonyl}amino)phenoxy]pyridin-2-yl}-N-[2-(2H-tetrazol-5-yl)ethyl]-1H-pyrrole-3-carboxamide]
IC50 [1]: 5 nM
IC50 [2]: 7 nM
IC50 [3]: 16 nM

Cc1ccc(F)c(NC(=O)Nc2ccc(Oc3ccnc(-c4cc(C(=O)NCCCN5CCCC(CO)C5)c[nH]4)c3)cc2)c1 (stereo not drawn) [Example 160, 5-{4-[4-({[(2-fluoro-5-methylphenyl)amino]carbonyl}amino)phenoxy]pyridin-2-yl}-N-{3-[3-(hydroxymethyl)piperidin-1-yl]propyl}-1H-pyrrole-3-carboxamide]
IC50 [1]: 9 nM
IC50 [2]: 7 nM
IC50 [3]: 19 nM

Cc1ccc(F)c(NC(=O)Nc2ccc(Oc3ccnc(-c4cc(C(=O)NCCCCC(=O)O)c[nH]4)c3)cc2)c1 [Example 166, 5-{[(5-{4-[4-({[(2-fluoro-5-methylphenyl)amino]carbonyl}amino)phenoxy]pyridin-2-yl}-1H-pyrrol-3-yl)carbonyl]amino}pentanoic acid]
IC50 [1]: 5 nM
IC50 [2]: 6 nM
IC50 [3]: 11 nM

COC(=O)CNCCCNC(=O)c1c[nH]c(-c2cc(Oc3cc(C(=O)Nc4cc(C)ccc4F)ccc3F)ccn2)c1 [Example 180, methyl ({3-[({5-[4-(2-fluoro-5-{[(2-fluoro-5-methylphenyl)amino]carbonyl}phenoxy)pyridin-2-yl]-1H-pyrrol-3-yl}carbonyl)amino]propyl}amino)acetate]
IC50 [1]: 14 nM
IC50 [2]: 32 nM
IC50 [3]: 53 nM

COC(=O)CNCCNC(=O)c1c[nH]c(-c2cc(Oc3cc(C(=O)Nc4cc(C)ccc4F)ccc3F)ccn2)c1 [Example 181, methyl ({2-[({5-[4-(2-fluoro-5-{[(2-fluoro-5-methylphenyl)amino]carbonyl}phenoxy)pyridin-2-yl]-1H-pyrrol-3-yl}carbonyl)amino]ethyl}amino)acetate]
IC50 [1]: 22 nM
IC50 [2]: 65 nM
IC50 [3]: 132 nM

Cc1ccc(F)c(NC(=O)c2ccc(F)c(Oc3ccnc(-c4cc(C(=O)NCCCN5CCC(O)CC5)c[nH]4)c3)c2)c1 [Example 184, 5-[4-(2-fluoro-5-{[(2-fluoro-5-methylphenyl)amino]carbonyl}phenoxy)pyridin-2-yl]-N-[3-(4-hydroxypiperidin-1-yl)propyl]-1H-pyrrole-3-carboxamide]
IC50 [1]: 19 nM
IC50 [2]: 51 nM
IC50 [3]: 49 nM

Cc1ccc(F)c(NC(=O)c2ccc(F)c(Oc3ccnc(-c4cc(C(=O)NCCCN5CCCC5)c[nH]4)c3)c2)c1 [Example 187, 5-[4-(2-fluoro-5-{[(2-fluoro-5-methylphenyl)amino]carbonyl}phenoxy)pyridin-2-yl]-N-(3-pyrrolidin-1-ylpropyl)-1H-pyrrole-3-carboxamide]
IC50 [1]: 15 nM
IC50 [2]: 27 nM
IC50 [3]: 98 nM

Cc1ccc(F)c(NC(=O)Nc2ccc(Oc3ccnc(-c4cc(C(=O)NCCCN(C)CC(O)CO)c[nH]4)c3)cc2F)c1 (stereo not drawn) [Example 195, N-{3-[(2,3-dihydroxypropyl)(methyl)amino]propyl}-5-{4-[3-fluoro-4-({[(2-fluoro-5-methylphenyl)amino]carbonyl}amino)phenoxy]pyridin-2-yl}-1H-pyrrole-3-carboxamide]
IC50 [1]: 7 nM
IC50 [2]: 9 nM
IC50 [3]: 19 nM

COC(=O)CNCCCNC(=O)c1c[nH]c(-c2cc(Oc3ccc(NC(=O)Nc4cc(C)ccc4F)c(F)c3)ccn2)c1 [Example 196, methyl [(3-{[(5-{4-[3-fluoro-4-({[(2-fluoro-5-methylphenyl)amino]carbonyl}amino)phenoxy]pyridin-2-yl}-1H-pyrrol-3-yl)carbonyl]amino}propyl)amino]acetate]
IC50 [1]: 8 nM
IC50 [2]: 10 nM
IC50 [3]: 19 nM

Cc1ccc(F)c(NC(=O)Nc2ccc(Oc3ccnc(-c4cc(C(=O)NCCCN5CCCC(CO)C5)c[nH]4)c3)cc2F)c1 (stereo not drawn) [Example 205, 5-{4-[3-fluoro-4-({[(2-fluoro-5-methylphenyl)amino]carbonyl}amino)phenoxy]pyridin-2-yl}-N-{3-[3-(hydroxymethyl)piperidin-1-yl]propyl}-1H-pyrrole-3-carboxamide]
IC50 [1]: 8 nM
IC50 [2]: 9 nM
IC50 [3]: 15 nM

Cc1ccc(F)c(NC(=O)Nc2ccc(Oc3ccnc(-c4cc(C(=O)NCCCN5CCOC(CO)C5)c[nH]4)c3)cc2F)c1 (stereo not drawn) [Example 206, 5-{4-[3-fluoro-4-({[(2-fluoro-5-methylphenyl)amino]carbonyl}amino)phenoxy]pyridin-2-yl}-N-{3-[2-(hydroxymethyl)morpholin-4-yl]propyl}-1H-pyrrole-3-carboxamide]
IC50 [1]: 9 nM
IC50 [2]: 12 nM
IC50 [3]: 17 nM

Cc1ccc(F)c(NC(=O)Nc2ccc(Oc3ccnc(-c4cc(C(=O)NCCCN5CCC(O)CC5)c[nH]4)c3)cc2F)c1 [Example 207, 5-{4-[3-fluoro-4-({[(2-fluoro-5-methylphenyl)amino]carbonyl}amino)phenoxy]pyridin-2-yl}-N-[3-(4-hydroxypiperidin-1-yl)propyl]-1H-pyrrole-3-carboxamide]
IC50 [1]: 7 nM
IC50 [2]: 10 nM
IC50 [3]: 17 nM

Cc1ccc(F)c(NC(=O)Nc2ccc(Oc3ccnc(-c4cc(C(=O)NCC(=O)O)c[nH]4)c3)cc2F)c1 [Example 210, {[(5-{4-[3-fluoro-4-({[(2-fluoro-5-methylphenyl)amino]carbonyl}amino)phenoxy]pyridin-2-yl}-1H-pyrrol-3-yl)carbonyl]amino}acetic acid]
IC50 [1]: 12 nM
IC50 [2]: 8 nM
IC50 [3]: 13 nM

Cc1ccc(F)c(NC(=O)Nc2ccc(Oc3ccnc(-c4cc(C(=O)NCCCN(CC(=O)O)CC(=O)O)c[nH]4)c3)cc2)c1 [Example 214, 2,2′-[(3-{[(5-{4-[4-({[(2-fluoro-5-methylphenyl)amino]carbonyl}amino)phenoxy]pyridin-2-yl}-1H-pyrrol-3-yl)carbonyl]amino}propyl)imino]diacetic acid]
IC50 [1]: 22 nM
IC50 [2]: 8 nM
IC50 [3]: 23 nM

Cc1ccc(F)c(NC(=O)Nc2ccc(Oc3ccnc(-c4cc(C(=O)N5CCN(CC(=O)O)CC5)c[nH]4)c3)cc2F)c1 [Example 218, {4-[(5-{4-[3-fluoro-4-({[(2-fluoro-5-methylphenyl)amino]carbonyl}amino)phenoxy]pyridin-2-yl}-1H-pyrrol-3-yl)carbonyl]piperazin-1-yl}acetic acid]
IC50 [1]: 5 nM
IC50 [2]: 9 nM
IC50 [3]: 16 nM

Cc1ccc(F)c(NC(=O)Nc2ccc(Oc3ccnc(-c4cc(C(=O)NCCCN5CCCC5C(=O)O)c[nH]4)c3)cc2F)c1 (stereo not drawn) [Example 220, 1-(3-{[(5-{4-[3-fluoro-4-({[(2-fluoro-5-methylphenyl)amino]carbonyl}amino)phenoxy]pyridin-2-yl}-1H-pyrrol-3-yl)carbonyl]amino}propyl)pyrrolidine-2-carboxylic acid]
IC50 [1]: 13 nM
IC50 [2]: 11 nM
IC50 [3]: 23 nM

Cc1ccc(F)c(NC(=O)Nc2ccc(Oc3ccnc(-c4cc(C(=O)NCCN)c[nH]4)c3)cc2F)c1 [Example 222, N-(2-aminoethyl)-5-{4-[3-fluoro-4-({[(2-fluoro-5-methylphenyl)amino]carbonyl}amino)phenoxy]pyridin-2-yl}-1H-pyrrole-3-carboxamide]
IC50 [1]: 9 nM
IC50 [2]: 15 nM
IC50 [3]: 29 nM

Cc1ccc(F)c(NC(=O)Nc2ccc(Oc3ccnc(-c4cc(C(=O)NCCCN)c[nH]4)c3)cc2F)c1 [Example 223, N-(3-aminopropyl)-5-{4-[3-fluoro-4-({[(2-fluoro-5-methylphenyl)amino]carbonyl}amino)phenoxy]pyridin-2-yl}-1H-pyrrole-3-carboxamide]
IC50 [1]: 13 nM
IC50 [2]: 12 nM
IC50 [3]: 16 nM

COC(=O)C1CCCN1CCCNC(=O)c1c[nH]c(-c2cc(Oc3ccc(NC(=O)Nc4cc(C)ccc4F)c(F)c3)ccn2)c1 (stereo not drawn) [Example 228, methyl 1-(3-{[(5-{4-[3-fluoro-4-({[(2-fluoro-5-methylphenyl)amino]carbonyl}amino)phenoxy]pyridin-2-yl}-1H-pyrrol-3-yl)carbonyl]amino}propyl)pyrrolidine-2-carboxylate]
IC50 [1]: 11 nM
IC50 [2]: 8 nM
IC50 [3]: 9 nM
